From ChEMBL document CHEMBL3137381, “MMV Box Onchocerca lienalis screening set”

Tests used:
Type in all cases: functional
Onchocerca lienalis [1] = assay: MMV: Percent motility assay at a compound concentration of 7.8e-7 M. Activity score legend: 3: Active, 2: Moderately active; 1: Inactive, 0: Toxic; settings: at 0.78 µM
Onchocerca lienalis [2] = assay: MMV: Percent motility assay at a compound concentration of 3.1e-6 M. Activity score legend: 3: Active, 2: Moderately active; 1: Inactive, 0: Toxic; settings: at 3.1 µM
Onchocerca lienalis [3] = assay: MMV: Percent motility assay at a compound concentration of 1.25e-5 M. Activity score legend: 3: Active, 2: Moderately active; 1: Inactive, 0: Toxic; settings: at 12.5 µM
Onchocerca lienalis [4] = assay: MMV: Percent motility assay at a compound concentration of 1.9e-7 M. Activity score legend: 3: Active, 2: Moderately active; 1: Inactive, 0: Toxic; settings: at 0.19 µM

| SMILES | Motility (Onchocerca lienalis [1]) [%] | Motility (Onchocerca lienalis [2]) [%] | Motility (Onchocerca lienalis [3]) [%] | Motility (Onchocerca lienalis [4]) [%] |
| --- | --- | --- | --- | --- |
| O=C(Nc1ccccc1O)c1ccc(Oc2cccc(C(=O)Nc3ccccc3O)c2)cc1 | 100 | 100 | 100 | 100 |
| Cl.N=c1n(CCN2CCCCC2)c2ccccc2n1CC(O)c1cccc(Br)c1 (configuration not stated) | 100 | 100 | 100 | 100 |
| COc1cccc(O)c1CN1CCC2(CCCN(Cc3ccc(F)cc3)C2)C1 (configuration not stated) | 100 | 100 | 100 | 100 |
| O=C(NCc1ccco1)C1CCN(S(=O)(=O)c2ccc(Cl)cc2)CC1 | 100 | 100 | 100 | 100 |
| COc1ccc(C(=O)Nc2ccc3nc(N4CCCCC4)cc(C)c3c2)cc1OC | 100 | 100 | 100 | 100 |
| FC(F)(F)c1ccc(Nc2nnnc3ccccc23)cc1 | 100 | 100 | 100 | 100 |
| c1ccc(-c2ccc(-c3nc4ccccc4[nH]3)cc2)cc1 | 100 | 100 | 66.6 | 100 |
| CCC(C)NCC(O)(c1ccc(Cl)cc1)c1ccc(Cl)cc1 (configuration not stated) | 100 | 100 | 100 | 100 |
| COc1cccc(NC(=O)Cn2c(C)c(C#N)c3ccccc32)c1 | 100 | 100 | 100 | 100 |
| Cn1c(=O)c2cc(C(=O)NCCCN3CCCCCC3)sc2c2ccccc21 | 100 | 100 | 100 | 100 |
| COc1ccc(CCN2CCC(CN(C)Cc3cnn(-c4ccccc4)c3)CC2)cc1 | 100 | 100 | 100 | 100 |
| O=C(NC(c1ccccc1)c1ccc2cccnc2c1O)c1ccccc1 (configuration not stated) | 100 | 33.33 | 26.66 | 100 |
| COCCNC(=O)c1ccc(OC2CCN(Cc3ccc(F)c(F)c3)CC2)c(Cl)c1 | 100 | 100 | 46.6 | 100 |
| CC(C)=CCN1CCC(C(=O)Nc2ccc(-c3nc4ccccc4[nH]3)cc2)CC1 | 100 | 100 | 100 | 100 |
| O=C(CCc1ccco1)NC1CCN(CC2(c3ccc(Cl)cc3)CCC2)CC1 | 100 | 100 | 100 | 100 |
| FC(F)(F)c1cccc(Nc2nc(-c3ccccc3)nc3ncccc23)c1 | 100 | 100 | 100 | 100 |
| CCN1CCN(c2cc(C)c3cc(NC(=O)c4ccc(OC)c(OC)c4)ccc3n2)CC1 | 100 | 100 | 100 | 100 |
| COc1ccc(CNC2CCN(c3ccc(NC(=O)c4cccc(Cl)c4)cc3)CC2)cc1OC | 100 | 100 | 100 | 100 |
| COCCN(C(=O)Cc1cccs1)C(C(=O)NCc1ccc(OC)cc1)c1ccc(C(C)C)cc1 (configuration not stated) | 100 | 100 | 46.6 | 100 |
| CC(NCc1ccccc1)c1cc(Cl)ccc1O (configuration not stated) | 100 | 100 | 100 | 100 |
| FC(F)(F)c1cccc(CNC2CCN(CCc3ccccc3)CC2)c1 | 100 | 100 | 100 | 100 |
| Oc1ccc(Cl)cc1CNc1nc2ccccc2[nH]1 | 100 | 100 | 66.6 | 100 |
| O=C(c1ccccc1F)N(Cc1ccc(Cl)cc1)c1ccccn1 | 100 | 100 | 100 | 100 |
| COc1ccc(C(=O)Nc2ccc(Cl)cc2C(=O)Nc2ccncc2)cc1 | 100 | 100 | 100 | 100 |
| O=C(Nc1ccc(CN2CCOCC2)cc1)c1ccc(-c2ccc(Br)cc2)o1 | 100 | 100 | 100 | 100 |
| O=C(Nc1ccc(Cl)cc1)N1CCN(c2ccc3nncn3n2)CC1 | 100 | 100 | 100 | 100 |
| CN(C)c1ccc(-c2nc3cc(N)ccc3[nH]2)cc1 | 100 | 66.66 | 33.33 | 100 |

| SMILES | Motility (Onchocerca lienalis [1]) [%] | Motility (Onchocerca lienalis [2]) [%] | Motility (Onchocerca lienalis [3]) [%] | Motility (Onchocerca lienalis [4]) [%] |
| --- | --- | --- | --- | --- |
| O=C(CSc1ccc2nnc(-c3cccc(F)c3)n2n1)Nc1ccc2c(c1)OCO2 | 100 | 100 | 100 | 100 |
| Cc1c(C)n(Cc2ccc(F)cc2)c2ccc(C(=O)NCc3ccco3)cc12 | 100 | 100 | 100 | 100 |
| CCN(CC)c1ccc(NC(=O)c2cccs2)cc1 | 100 | 100 | 100 | 100 |
| CCCCNCC(O)(c1ccc(Cl)cc1)c1ccc(Cl)cc1 | 100 | 100 | 100 | 100 |
| CCn1c(SCC(=O)Nc2cc(C(F)(F)F)ccc2Cl)nc2ccccc2c1=O | 100 | 100 | 100 | 100 |
| Cc1ccc(Cn2c(N3CCC(C(=O)NCc4cccs4)CC3)nc3ccccc32)cc1 | 100 | 100 | 100 | 100 |
| O=C(Nc1ccsc1C(=O)NC1CCCCC1)c1ccc(F)cc1 | 100 | 100 | 100 | 100 |
| O=C(Nc1ccc(Cl)cc1C(=O)Nc1ccncc1)c1ccc(Cl)cc1Cl | 100 | 100 | 100 | 100 |
| O=C(Nc1cccc(C(F)(F)F)c1)c1cc(Cl)ccc1O | 100 | 53.33 | 0 | 100 |
| CCOc1cccc2sc(N(Cc3cccnc3)C(=O)C3CCCCC3)nc12 | 100 | 100 | 100 | 100 |
| CCN(CC)c1cc(C)c2cc(NC(=O)c3cccc(OC)c3)ccc2n1 | 100 | 100 | 100 | 100 |
| CC(C)(C)CC(C)(C)NCC(O)COc1ccc2c(c1)CCC2.Cl (configuration not stated) | 100 | 100 | 100 | 100 |
| CCOc1ccc(/C=C/c2nc(=O)c3ccccc3o2)cc1 | 100 | 100 | 100 | 100 |
| O=C(Nc1ccccc1O)c1ccc(-c2ccc(Cl)cc2Cl)o1 | 100 | 100 | 100 | 100 |
| O=C(Nc1nc(-c2ccccn2)cs1)c1ccccc1Br | 100 | 60 | 0 | 100 |
| CC(O)(c1ccc(Cl)cc1)C(CN1CCCCC1)c1ccccc1.Cl (configuration not stated) | 100 | 100 | 66.6 | 100 |
| CCCCc1ccc(NS(=O)(=O)c2cc3c4c(c2)CCN4C(=O)CC3)cc1 | 100 | 100 | 100 | 100 |
| CCOc1ccc(-c2nc(NC(=O)c3cccc(S(C)(=O)=O)c3)sc2C)cc1 | 100 | 100 | 100 | 100 |
| CCOc1ccccc1CNC(=O)C1c2ccccc2C(=O)N(CC(C)C)C1c1cccs1 (configuration not stated) | 100 | 100 | 100 | 100 |
| COc1ccccc1N1CCN(C(CNS(=O)(=O)c2ccc(Cl)cc2)c2cccnc2)CC1 (configuration not stated) | 100 | 100 | 100 | 100 |
| CCCc1c(C)nc2ccccc2c1O | 100 | 100 | 100 | 100 |
| COc1ccc(C2Sc3ccccc3N=C3C2=C(O)c2ccccc23)cc1 (configuration not stated) | 100 | 100 | 100 | 100 |
| CCN(CC)CCCNc1nc(-c2ccc(Cl)cc2)nc2ccccc12 | 100 | 100 | 66.6 | 100 |
| CN1c2ccccc2N(C)C1c1ccc2c(c1)OCO2 | 100 | 100 | 100 | 100 |
| CC1CCCCN1CCCNC(=O)c1ccc2c(c1)sc1nc(-c3ccc(F)cc3)cn12 (configuration not stated) | 100 | 100 | 80 | 100 |
| C=C(C)CCC(C)N1CCC(N2CCC(C(=O)NCCc3ccccc3)CC2)CC1 (configuration not stated) | 100 | 100 | 100 | 100 |
